These results are taken from PubChem BioAssay (NCI).

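In this assay, cells in 96-well plates receive the compound at five concentrations for 48 hours. Endpoints are linearly interpolated between the surrounding concentrations. The concentration for 50% growth inhibition is given as GI50. TGI denotes the concentration required for complete inhibition of growth.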

Some test systems named below: HCC-2998 colon; UO-31 renal; M14 melanoma; A498 renal; NCI-H23 lung; SK-OV-3 ovarian; LOX IMVI melanoma; UACC-257 melanoma; COLO 205 colon; OVCAR-8 ovarian.
What all share (assay): NCI-60 cell line screen, 48 h

For `COc1cc2c(c(OC)c1OC)-c1ccc(SC)c(=O)cc1C(CO)C2` (configuration not stated), the GI50 in the experiment on HCC-2998 colon, in the experiment with UO-31 renal, with M14 melanoma, with A498 renal, in the experiment on NCI-H23 lung and with SK-OV-3 ovarian was < 0.01 µM in each case. The GI50 in the experiment with LOX IMVI melanoma was < 0.01 µM; with UACC-257 melanoma, 3.45 µM; in the experiment on COLO 205 colon, < 0.01 µM; in the experiment with OVCAR-8 ovarian, < 0.01 µM. Moreover, the TGI in the experiment on UO-31 renal is > 100 µM; in the experiment on M14 melanoma, < 0.01 µM; with NCI-H23 lung, < 0.01 µM; in the experiment with SK-OV-3 ovarian, 31.8 µM; with LOX IMVI melanoma it was 19.8 µM; with UACC-257 melanoma it was > 100 µM.

With `COc1cc([N+](=O)[O-])c(OC)cc1-c1nc2sc(Cl)cn2c1/C(N)=N/C(=N)N`, the GI50 was 1.99 µM in the experiment with HCC-2998 colon; 26.2 µM in the experiment with UO-31 renal; 3.51 µM in the experiment on M14 melanoma; 20.7 µM with A498 renal; 3.43 µM in the experiment with NCI-H23 lung; 23.7 µM with SK-OV-3 ovarian. In addition, the figures for the GI50 in the experiment with LOX IMVI melanoma, with UACC-257 melanoma and with COLO 205 colon were 4.44 µM, 8 µM and 2.71 µM, respectively. Moreover, the TGI was 4.15 µM with HCC-2998 colon; > 61.8 µM with UO-31 renal; 13 µM in the experiment with M14 melanoma; 48.6 µM with A498 renal; 10.8 µM in the experiment on NCI-H23 lung; > 62.1 µM with SK-OV-3 ovarian. For the same compound, the values for the TGI with LOX IMVI melanoma, in the experiment on UACC-257 melanoma and in the experiment with COLO 205 colon were > 100 µM, 22.6 µM and 6.67 µM, respectively.

For `CC(C)(C)c1ccc(Oc2nccc(-c3c(-c4ccc(F)cc4)ncn3C3CCNCC3)n2)cc1`, the GI50 was 1.38 µM in the experiment on HCC-2998 colon; 2.61 µM in the experiment on UO-31 renal; 4.5 µM in the experiment with M14 melanoma; 3.89 µM in the experiment with A498 renal; 4.35 µM with SK-OV-3 ovarian; 3.43 µM with LOX IMVI melanoma. Also, the GI50 is 3.69 µM in the experiment on COLO 205 colon and 3.72 µM in the experiment with OVCAR-8 ovarian. Moreover, the TGI came to 4.98 µM in the experiment with HCC-2998 colon; 6.61 µM with UO-31 renal; 8.46 µM in the experiment with M14 melanoma; 7.49 µM in the experiment with A498 renal; 7.8 µM in the experiment on SK-OV-3 ovarian; 7.49 µM in the experiment with LOX IMVI melanoma. Also, the TGI is 7.46 µM in the experiment with COLO 205 colon and 7.36 µM in the experiment with OVCAR-8 ovarian.

On to `CCS(CC)(CC)CC1CCCC2=CCC(P(=O)(c3ccccc3)c3ccccc3)CC21` (configuration not stated), for which the TGI with HCC-2998 colon came to 22 µM; in the experiment with UO-31 renal, 20.3 µM; in the experiment on M14 melanoma, 25.6 µM; with A498 renal it was 28 µM; with NCI-H23 lung, 25.6 µM; in the experiment on SK-OV-3 ovarian, 28.7 µM. Further, the TGI with LOX IMVI melanoma came to 34.9 µM; with COLO 205 colon, 37.4 µM; in the experiment on OVCAR-8 ovarian, 31.4 µM.

Consider `CCOC(=O)NC(=O)c1cn(CCOC(=O)CCCCCCCCC(=O)OCCn2cc(C(=O)NC(=O)OCC)c(=O)[nH]c2=O)c(=O)[nH]c1=O`, for which the TGI is > 100 µM in the experiment with HCC-2998 colon; > 100 µM in the experiment on UO-31 renal; > 100 µM with M14 melanoma; > 100 µM in the experiment on A498 renal; 56.7 µM with NCI-H23 lung; > 100 µM in the experiment with LOX IMVI melanoma. Further, the TGI in the experiment with UACC-257 melanoma and with OVCAR-8 ovarian was > 100 µM each time.

`O=C(O)C(SC(=S)c1ccc(C(=S)SC(C(=O)O)c2ccccc2)cc1)c1ccccc1` (configuration not stated): the TGI with HCC-2998 colon, with UO-31 renal, with M14 melanoma, with A498 renal, in the experiment on NCI-H23 lung and in the experiment on SK-OV-3 ovarian was > 100 µM throughout. Also, the TGI in the experiment with LOX IMVI melanoma, in the experiment with UACC-257 melanoma and in the experiment on OVCAR-8 ovarian was > 100 µM in each case.

On to `Oc1c(C(Nc2cccc3cccnc23)c2ccccc2)ccc2cccnc12` (configuration not stated), for which the TGI in the experiment on HCC-2998 colon was > 100 µM; in the experiment with UO-31 renal, > 100 µM; with A498 renal, 66.6 µM; in the experiment with NCI-H23 lung, > 100 µM; in the experiment with LOX IMVI melanoma, > 100 µM; in the experiment with UACC-257 melanoma, 35.9 µM. Further, the figures for the TGI with COLO 205 colon and with OVCAR-8 ovarian were > 100 µM and 21.3 µM, respectively.

Consider `COC1CC(OS(=O)(=O)c2ccc([N+](=O)[O-])cc2)C(OC(=O)c2ccccc2)C(C)O1` (configuration not stated), for which the TGI with HCC-2998 colon, in the experiment with M14 melanoma, in the experiment with A498 renal, in the experiment with NCI-H23 lung, in the experiment on LOX IMVI melanoma and in the experiment on UACC-257 melanoma was > 100 µM throughout. Also, the TGI in the experiment with COLO 205 colon and in the experiment on OVCAR-8 ovarian was > 100 µM throughout.

On to `COc1ccc2cc(C(=O)/C=C/c3ccc(Cl)cc3Cl)ccc2c1`, for which the GI50 with HCC-2998 colon is 15.3 µM; with UO-31 renal it was 15.5 µM; in the experiment on M14 melanoma, 8.75 µM; in the experiment with A498 renal, 19.8 µM; with NCI-H23 lung, 20.5 µM; in the experiment on SK-OV-3 ovarian it was 61.6 µM. In addition, the GI50 in the experiment on UACC-257 melanoma was 20 µM; with COLO 205 colon, 20.3 µM; in the experiment on OVCAR-8 ovarian it was 14.8 µM. Further, the TGI was 29.1 µM in the experiment with HCC-2998 colon; 32.3 µM in the experiment on UO-31 renal; 28 µM in the experiment on M14 melanoma; 36 µM with A498 renal; 53.4 µM in the experiment on NCI-H23 lung; > 100 µM in the experiment with SK-OV-3 ovarian. In addition, the TGI in the experiment on UACC-257 melanoma worked out at 55 µM; in the experiment with COLO 205 colon, 55.7 µM; with OVCAR-8 ovarian, 30.4 µM.

Turning to `COc1cc(C(=O)O[C@H](C(=O)NCCCCCNC(=O)[C@@H](OC(=O)c2cc(OC)cc3c(C)cccc23)[C@]2(C)CO2)[C@]2(C)CO2)c2cccc(C)c2c1`, the GI50 is 0.254 µM in the experiment with HCC-2998 colon; 2.24 µM with UO-31 renal; 1.33 µM with A498 renal; 0.179 µM in the experiment on NCI-H23 lung; 3.28 µM in the experiment on SK-OV-3 ovarian; < 0.01 µM in the experiment with LOX IMVI melanoma. Moreover, the GI50 is 2.03 µM in the experiment with UACC-257 melanoma and 0.286 µM with COLO 205 colon. For the same compound, the TGI is 3.55 µM in the experiment on HCC-2998 colon; > 100 µM in the experiment with UO-31 renal; 0.305 µM in the experiment on M14 melanoma; 5.25 µM in the experiment with A498 renal; 0.665 µM in the experiment with NCI-H23 lung; > 30.1 µM in the experiment on SK-OV-3 ovarian. The TGI in the experiment with LOX IMVI melanoma was < 0.0138 µM; in the experiment with UACC-257 melanoma it was 5.33 µM.

With `C=C1C(=O)O[C@H]2[C@H]1CC/C(COC(=O)NCc1cn(C)c3ccccc13)=C\CC[C@@]1(C)O[C@@H]21`, the GI50 is 2.3 µM in the experiment with HCC-2998 colon; 1.34 µM in the experiment on UO-31 renal; 1.45 µM in the experiment with M14 melanoma; 3.21 µM with A498 renal; 2.01 µM in the experiment with NCI-H23 lung; 0.594 µM in the experiment on LOX IMVI melanoma. The figures for the GI50 in the experiment with UACC-257 melanoma and with OVCAR-8 ovarian were 1.56 µM and 1.4 µM, respectively. For the same compound, the TGI in the experiment on HCC-2998 colon came to 5.33 µM; in the experiment on UO-31 renal, 2.62 µM; with M14 melanoma it was 2.92 µM; in the experiment on A498 renal, 12.1 µM; in the experiment on NCI-H23 lung, 4.69 µM; in the experiment with LOX IMVI melanoma it was 1.99 µM. The TGI is 4.03 µM in the experiment on UACC-257 melanoma and 5.18 µM in the experiment with OVCAR-8 ovarian.
